# Assay results published in patent US9211284B2, “Diagnosis and treatment of P.R.I.C.E. syndrome” (priority 2013, dated 2015).
# Entries after “also recorded” stand apart in the source; their conditions may differ.
# Tests used:
# [1] = system: patient having P.R.I.C.E. Syndrome; experiment: Example 1: case report of a patient with P.R.I.C.E. Syndrome, earlier medications then KAPVAY (plus inositol)
# Text: The patient was tried on many psychostimulant medications, which are the gold standard for treatment of ADHD. Medications in this class include: Adderall/XR, Focalin/XR, Dexedrine, Vyvanse, Ritalin/LA/ER, Metadate ER/CD, Concerta and Daytrana.
# By convention, psychiatrists refer to this phenomenon as Bipolar III or hypomania induced by medication which predicts and unmasks the development of spontaneous mood swings of genuine Bipolar to come for the patient later in life.
# Nevertheless, the psychiatrist tried a series of atypical antipsychotics, including Zyprexa, Geodon, Seroquel as well as two FDA approved drugs for treatment of irritability in Autistic Disorder, Abilify and Risperdal.
# The Applicant tapered and discontinued the aforementioned medications in the patient. The Applicant then titrated up KAPVAY® as follows: 0.1 mg at bedtime for a week; next, 0.1 mg twice a day for a week; next, 0.1 mg in the morning and 0.2 mg at night for one week; and finally 0.2 mg twice a day going forward.
# [2] = system: patient having P.R.I.C.E. Syndrome; experiment: Example 2: case report of a patient with P.R.I.C.E. Syndrome, earlier medications then INTUNIV (plus inositol); format: in vivo, human; settings: Example 2 patient; for side effects / effect on the patient's symptoms (particularism, concentration): medications given before the P.R.I.C.E. diagnosis
# Protocol: They had been taking Zoloft and Abilify, as well as Melatonin to help them sleep.
# The Applicant tapered and discontinued the patient's then-current medications. The Applicant then titrated up INTUNIV® 1 mg at bedtime, increasing by an additional 1 mg at bedtime every week as necessary to achieve symptom control, up to a maximum of 4 mg.
# [3] = system: patients having P.R.I.C.E. Syndrome; experiment: Applicant's general clinical findings in patients who meet all criteria for P.R.I.C.E. Syndrome; format: in vivo, human; settings: patients meeting all P.R.I.C.E. criteria, Applicant's practice
# Text: Both KAPVAY® and INTUNIV® are FDA-approved for treatment of ADHD. […] A psychiatrist would be led away from prescribing KAPVAY® or INTUNIV® to patients with suspected Bipolar Disorder since it is known that alpha-2 adrenergic agonists could potentially exacerbate emotional lability found in such patients.
# Extended release clonidine is capable of stable therapeutic effects by maintaining a constant serum level for an extended period in order to avoid the “peak and trough” side effects of transient sedation at peak serum levels and rebound exacerbation of symptoms at trough levels. Embodiments of extended release compositions of clonidine are described in U.S. Pat. No. 5,869,100, which is incorporated herein by reference in its entirety.
# [4] = cited from earlier work
# [5] = system: patients with Bipolar Disorder; settings: post-marketing reports; cited from earlier work
# [6] = Example 1 patient, medications tried before the P.R.I.C.E. diagnosis
Compound,"side effects ([1]; human, in vivo)","effect on the patient's symptoms (agitation, impulsivity, concentration, rigidity) [1, 6]",further results
OCCOCCN1CCN(C2=Nc3ccccc3Sc3ccccc32)CC1 [Seroquel],"severe sedation, impaired their concentration further and caused an increase in both appetite and weight",,
Cc1nc2n(c(=O)c1CCN1CCC(c3noc4cc(F)ccc34)CC1)CCCC2 [Risperdal],"severe sedation, impaired their concentration further and caused an increase in both appetite and weight",,side effects [2]: sedation and weight gain
CC(C)NCC(O)COc1cccc2ccccc12 (stereo not shown) [propranolol],too sedative,not effective,
O=C1Cc2cc(CCN3CCN(c4nsc5ccccc45)CC3)c(Cl)cc2N1 [Geodon],"severe sedation, impaired their concentration further and caused an increase in both appetite and weight",,
NC(=O)N1c2ccccc2C=Cc2ccccc21 [Tegretol],worsening the patient's concentration,ineffective,
"O[C@H]1[C@H](O)[C@@H](O)[C@H](O)[C@@H](O)[C@H]1O [Inositol, inositol]",,,"effect on ""getting stuck"" on certain topics in conversation ([2]; Inositol 9000 mg twice a day added to INTUNIV): therapeutically beneficial; effectiveness in treating P.R.I.C.E. Syndrome [3]: effective in addressing residual particularism"
CC(NC(C)(C)C)C(=O)c1cccc(Cl)c1 (stereo not shown) [Wellbutrin],,increased agitation and impulsivity,
CCCC(CCC)C(=O)O [Depakote],,ineffective; also recorded: not helping their agitation,
Nc1nnc(-c2cccc(Cl)c2Cl)c(N)n1 [Lamictal],,ineffective; also recorded: not helping their agitation,
"Clc1cccc(Cl)c1N=C1NCCN1 [short-acting clonidine, 2,6-dichloro-N-2-imidazolidinylidene benzeneamine]",too sedative,not effective,"biological half-life ([4]; after oral administration of short-acting clonidine): four to six; primary side-effect ([4]; short-acting clonidine, about an hour after the given dose): sedation; absorption from the gastrointestinal tract ([4]; short-acting oral formulation): almost completely absorbed; effectiveness in treating P.R.I.C.E. Syndrome [3]: ineffective"
O=C1CCc2ccc(OCCCCN3CCN(c4cccc(Cl)c4Cl)CC3)cc2N1 [Abilify],"severe sedation, impaired their concentration further and caused an increase in both appetite and weight",,"effect on the patient's symptoms (particularism, concentration) [2]: without improvement in concentration; side effects [2]: sedation and tremor"
Cc1cc2c(s1)Nc1ccccc1N=C2N1CCN(C)CC1 [Zyprexa],"severe sedation, impaired their concentration further and caused an increase in both appetite and weight",,
CN(C)CCC[C@@]1(c2ccc(F)cc2)OCc2cc(C#N)ccc21 [Lexapro],,worsening their agitation without helping their rigidity,
COC(=O)C(c1ccccc1)C1CCCCN1 (stereo not shown) [Daytrana],,worsen their agitation without helping their concentration,
NC(=O)N1c2ccccc2CC(=O)c2ccccc21 [Trileptal],worsening the patient's concentration,ineffective,
NC(=O)C[S@@+]([O-])C(c1ccccc1)c1ccccc1 [Nuvigil],,increased agitation and impulsivity,
"N=C(N)NC(=O)Cc1c(Cl)cccc1Cl [Tenex, N-(Aminoiminomethyl)-2,6-dichlorobenzeneacetamide; N-amidino-2-(2,6 dichlorophenyl) acetamide]",,not effective,"side effects [1, 6]: too sedative; manic symptoms in Bipolar Disorder [5]: development or exacerbation of manic symptoms"
CC1(C)O[C@@H]2[C@@H](CO[C@@]3(COS(N)(=O)=O)OC(C)(C)O[C@@H]23)O1 [Topamax],worsening the patient's concentration,ineffective,
[Li] [Lithium],,,"side effects [1, 6]: worsening the patient's concentration"
CN[C@H]1CC[C@@H](c2ccc(Cl)c(Cl)c2)c2ccccc21 [Zoloft],,,"effect on the patient's symptoms (particularism, concentration) [2]: did not alleviate the particularism; side effects [2]: become “wild” and unable to sleep"
CNCCC(Oc1ccc(C(F)(F)F)cc1)c1ccccc1 (stereo not shown) [Prozac],,,"effect on the patient's symptoms (particularism, concentration) [2]: did not alleviate the particularism; side effects [2]: become “wild” and unable to sleep"
CNCC[C@@H](Oc1ccccc1C)c1ccccc1 [Strattera],,increased agitation and impulsivity,
NC(=O)C[S+]([O-])C(c1ccccc1)c1ccccc1 (stereo not shown) [Provigil],,increased agitation and impulsivity,
